{"source": "paper PMC12037037", "about": "(Proceedings of the National Academy of Sciences of the …, 2025)", "molecular_target": "T1, human ether-a-go-go related gene (hERG) channels (Homo sapiens, UniProt Q12809)", "T1 construct": "Apconix", "T1 sequence (Q12809 whole entry)": "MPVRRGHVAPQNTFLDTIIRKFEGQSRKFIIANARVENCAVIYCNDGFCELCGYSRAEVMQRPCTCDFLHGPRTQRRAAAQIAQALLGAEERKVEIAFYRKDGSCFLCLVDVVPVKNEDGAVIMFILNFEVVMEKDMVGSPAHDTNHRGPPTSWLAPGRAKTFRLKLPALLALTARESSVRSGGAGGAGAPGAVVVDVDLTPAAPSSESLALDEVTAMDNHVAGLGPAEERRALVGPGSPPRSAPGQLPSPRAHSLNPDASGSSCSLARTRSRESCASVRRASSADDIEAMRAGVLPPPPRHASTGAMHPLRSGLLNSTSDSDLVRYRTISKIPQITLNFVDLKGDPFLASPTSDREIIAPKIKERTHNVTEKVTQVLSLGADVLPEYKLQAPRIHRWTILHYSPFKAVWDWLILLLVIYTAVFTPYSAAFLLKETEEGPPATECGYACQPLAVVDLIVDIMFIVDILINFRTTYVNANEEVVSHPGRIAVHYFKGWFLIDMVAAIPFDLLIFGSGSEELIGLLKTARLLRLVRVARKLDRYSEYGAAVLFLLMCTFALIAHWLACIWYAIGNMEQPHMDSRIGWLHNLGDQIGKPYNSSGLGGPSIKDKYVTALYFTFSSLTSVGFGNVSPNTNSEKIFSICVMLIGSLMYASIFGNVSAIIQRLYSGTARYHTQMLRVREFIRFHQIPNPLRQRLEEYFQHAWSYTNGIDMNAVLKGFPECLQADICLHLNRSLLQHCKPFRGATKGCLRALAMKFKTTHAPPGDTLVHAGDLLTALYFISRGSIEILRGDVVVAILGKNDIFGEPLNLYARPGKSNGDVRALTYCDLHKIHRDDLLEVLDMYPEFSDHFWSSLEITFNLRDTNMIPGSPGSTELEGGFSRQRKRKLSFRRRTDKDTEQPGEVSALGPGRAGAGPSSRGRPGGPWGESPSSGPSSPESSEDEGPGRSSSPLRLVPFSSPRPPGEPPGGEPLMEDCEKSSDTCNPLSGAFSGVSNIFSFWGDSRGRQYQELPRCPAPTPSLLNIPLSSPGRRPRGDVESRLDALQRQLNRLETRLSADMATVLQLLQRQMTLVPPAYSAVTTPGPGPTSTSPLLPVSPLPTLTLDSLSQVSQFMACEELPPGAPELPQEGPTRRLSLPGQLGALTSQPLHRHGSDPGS", "experiment": "hERG inhibition assay (Apconix)", "type": "biochemical", "experimental": "(1 picture or pasted object on this page, not shown here)\nComparison Between WT and S242A5.46 psychLight Variants. Activity in WT and S242A5.46 mutant forms of PsychLight was quantified by deriving ligand activity ratios (log(Emax/EC50)). […]\nand (+)-JRT were fit to a log(agonist) vs. response (three parameters) curve. The Emax/EC50 analysis was performed as previously described in detail by others (16):\nResponse = Basal + E!\"# − Basal where Emax and Basal represent the top and bottom asymptotes of the curve fit, respectively; EC50 represents the concentration that gives a response halfway between Emax and Basal; and Log[A] is the logarithm of the agonist concentration. Then, ligand activity ratios, log(Emax/EC50) were calculated for each test ligand and statistical comparisons made between each other and between genotypes using a two-way ANOVA and significant interaction effects followed by a Šídák's multiple comparisons test.\nADME and hERG Inhbition Assays. […]\nBriefly, 96 well plates were coated with poly-D-lysine and approximately 15,000 cells/well. […] Images were analyzed using the Simple Neurite Tracer and Sholl analysis plug-ins for ImageJ Fiji (version 1.51N). […] All images were taken and analyzed by an experimenter blinded to treatment conditions.\nSpinogenesis Assays Using Cultured Rat Cortical Neurons. […] Images were analyzed using ImageJ Fiji (version 1.51N). […]", "note": "“Also recorded” adds a separate entry of the source.", "data": [{"smiles": "CCN(CC)C(=O)[C@@H]1C=C2c3cccc4ccn(c34)C[C@H]2N(C)C1", "note": "[(+)-JRT]", "values": [{"measurement": "hERG channel inhibition", "value": "does not inhibit hERG channels; also recorded: did not inhibit"}]}]}
